How the values were obtained:
HLA-A*24 = assay: MHC binding assay by UV-ligand exchange and beta2m ELISA; parameters: species or system human; conditions: peptide exchange yield
From the text: (§1) Candidate peptides for T cell based therapies according to the present invention were further tested for their MHC binding capacity (affinity). The individual peptide-MHC complexes were produced by UV-ligand exchange, where a UV-sensitive peptide is cleaved upon UV-irradiation, and exchanged with the peptide of interest as analyzed. Only peptide candidates that can effectively bind and stabilize the peptide-receptive MHC molecules prevent dissociation of the MHC complexes. To determine the yield of the exchange reaction, an ELISA was performed based on the detection of the light chain (β2m) of stabilized MHC complexes. The assay was performed as generally described in Rodenko et al. (Rodenko et al., 2006).
(§2) 96 well MAXISorp plates (NUNC) were coated over night with 2 ug/ml streptavidin in PBS at room temperature, washed 4× and blocked for 1 h at 37° C. in 2% BSA containing blocking buffer. Refolded HLA-A*02:01/MLA-001 monomers served as standards, covering the range of 15-500 ng/ml. Peptide-MHC monomers of the UV-exchange reaction were diluted 100 fold in blocking buffer. Samples were incubated for 1 h at 37° C., washed four times, incubated with 2 ug/ml HRP conjugated anti-β2m for 1 h at 37° C., washed again and detected with TMB solution that is stopped with […]. Absorption was measured at 450 nm. Candidate peptides that show a high exchange yield (preferably higher than 50%, most preferred higher than 75%) are generally preferred for a generation and production of antibodies or fragments thereof, and/or T cell receptors or fragments thereof, as they show sufficient avidity to the MHC molecules and prevent dissociation of the MHC complexes.

HLA-A*02 = HLA-A*02 (Homo sapiens, UniProt P04439, D140Y/D185E/D98H/E176V/E277Q/G131W/G231S/I119V/I121R/I166T/I218V/L300P/N151K/N90K/P208A/P217A/Q86G/Q94H/R138H/R169H); assay: as above; conditions: peptide exchange yield
From the text: as §1, §2

CD8+ T cells = assay: In vitro T-cell priming assay with aAPCs loaded with peptide/MHC and anti-CD28, multimer readout; format: cell-based, human; conditions: in vitro immunogenicity; for donors / wells: Table 15A; for donors: positive donors; for wells: positive wells; for Wells positive [%]: Table 15B
From the text: In order to obtain information regarding the immunogenicity of the TUMAPs of the present invention, the inventors performed investigations using an in vitro T-cell priming assay based on repeated stimulations of CD8+ T cells with artificial antigen presenting cells (aAPCs) loaded with peptide/MHC complexes and anti-CD28 antibody.
In order to perform in vitro stimulations by artificial antigen presenting cells loaded with peptide-MHC complex (pMHC) and anti-CD28 antibody, the inventors first isolated CD8+ T cells from fresh HLA-A*02 leukapheresis products via positive selection using CD8 microbeads (Miltenyi Biotec, Bergisch-Gladbach, Germany) of healthy donors obtained from the University clinics Mannheim, Germany, after informed consent.
PBMCs and isolated CD8+ lymphocytes were incubated in T-cell medium (TCM) until use consisting of RPMI-Glutamax (Invitrogen, Karlsruhe, Germany) supplemented with 10% heat inactivated human AB serum (PAN-Biotech, Aidenbach, Germany), 100 U/ml Penicillin/100 μg/ml Streptomycin (Cambrex, Cologne, Germany), 1 mM sodium pyruvate (CC Pro, Oberdorla, Germany), 20 μg/ml Gentamycin (Cambrex). 2.5 ng/ml IL7 (PromoCell, Heidelberg, Germany) and 10 U/ml IL-2 (Novartis Pharma, Nurnberg, Germany) were also added to the TCM at this step.
Generation of pMHC/anti-CD28 coated beads, T-cell stimulations and readout was performed in a highly defined in vitro system using four different pMHC molecules per stimulation condition and 8 different pMHC molecules per readout condition.
The purified co-stimulatory mouse IgG2a anti human CD28 Ab 9.3 (Jung et al., 1987) was chemically biotinylated using Sulfo-N-hydroxysuccinimidobiotin as recommended by the manufacturer (Perbio, Bonn, Germany). Beads used were 5.6 μm diameter streptavidin coated polystyrene particles (Bangs Laboratories, Illinois, USA).
800.000 beads/200 μl were coated in 96-well plates in the presence of 4×12.5 ng different biotin-pMHC, washed and 600 ng biotin anti-CD28 were added subsequently in a volume of 200 μl. Stimulations were initiated in 96-well plates by co-incubating […] CD8+ T cells with 2×10^5 washed coated beads in 200 μl TCM supplemented with 5 ng/ml IL-12 (PromoCell) for 3 days at 37° C. Half of the medium was then exchanged by fresh TCM supplemented with 80 U/ml IL-2 and incubating was continued for 4 days at 37° C. This stimulation cycle was performed for a total of three times. For the pMHC multimer readout using 8 different pMHC molecules per condition, a two-dimensional combinatorial coding approach was used as previously described (Andersen et al., 2012) with minor modifications encompassing coupling to 5 different fluorochromes. Finally, multimeric analyses were performed by staining the cells with Live/dead near IR dye (Invitrogen, Karlsruhe, Germany), CD8-FITC antibody clone SK1 (BD, Heidelberg, Germany) and fluorescent pMHC multimers. For analysis, a BD LSRII SORP cytometer equipped with appropriate lasers and filters was used. Peptide specific cells were calculated as percentage of total CD8+ cells. Evaluation of multimeric analysis was done using the FlowJo software (Tree Star, Oregon, USA). In vitro priming of specific multimer+ CD8+ lymphocytes was detected by comparing to negative control stimulations.

| Substance | Peptide exchange (HLA-A*24) | Peptide exchange (HLA-A*02) | also measured |
| --- | --- | --- | --- |
| 56 (LFHPEDTGQVF; listed as Homo sapiens) [compound 56] | ++ (>20% = ++) | – | – |
| 7 (TLLQVVGVVSV; listed as Homo sapiens) [compound 7] | – | ++ (>20% = ++) | – |
| 35 (IYTRVTYYL; listed as Homo sapiens) [compound 35] | ++ (>20% = ++) | – | donors (CD8+ T cells): ++++ (>=70% = ++++); wells (CD8+ T cells): ++ (20%-49% = ++) |
| 26 (RYADDTFTPAF; listed as Homo sapiens) [compound 26] | +++ (>50 = +++) | – | – |
| 16 (KMDEASAQL; listed as Homo sapiens) [compound 16] | – | +++ (>50 = +++) | – |
| 54 (AYSEKVTEF; listed as Homo sapiens) [compound 54] | +++ (>50 = +++) | – | – |
| 21 (YLNDSLRHV; listed as Homo sapiens) [compound 21] | – | ++ (>20% = ++) | – |
| 28 (YYAKEIHKF; listed as Homo sapiens) [compound 28] | ++++ (>75% = ++++) | – | – |
| 34 (AFSPDSHYLLF; listed as Homo sapiens) [compound 34] | +++ (>50 = +++) | – | donors (CD8+ T cells): +++ (50%-69% = +++); wells (CD8+ T cells): + (<20% = +) |
| 27 (GYLQGLVSF; listed as Homo sapiens) [compound 27] | ++++ (>75% = ++++) | – | Wells positive [%] (CD8+ T cells): ++ (20%-49% = ++) |
| 31 (AYTSPPSFF; listed as Homo sapiens) [compound 31] | +++ (>50 = +++) | – | – |
| 45 (RYFKTPRKF; listed as Homo sapiens) [compound 45] | ++ (>20% = ++) | – | – |
| 15 (KMDEASAQLLA; listed as Homo sapiens) [compound 15] | – | +++ (>50 = +++) | – |
| 20 (SLLSHQVLL; listed as Homo sapiens) [compound 20] | – | +++ (>50 = +++) | – |
| 10 (TLWRGPVVV; listed as Homo sapiens) [compound 10] | – | +++ (>50 = +++) | – |
| 4 (ALLTFVWKL; listed as Homo sapiens) [compound 4] | – | ++++ (>75% = ++++) | – |
| 14 (KMDEASAQLL; listed as Homo sapiens) [compound 14] | – | ++ (>20% = ++) | – |
| 5 (KIFSRLIYI; listed as Homo sapiens) [compound 5] | – | +++ (>50 = +++) | Wells positive [%] (CD8+ T cells): +++ (50%-69%= +++) |
| 2 (SMLGEEIQL; listed as Homo sapiens) [compound 2] | – | ++++ (>75% = ++++) | – |
| 33 (QYGKDFLTL; listed as Homo sapiens) [compound 33] | +++ (>50 = +++) | – | – |
| 9 (GMLNEAEGKAIKL; listed as Homo sapiens) [compound 9] | – | +++ (>50 = +++) | – |
| 36 (RYMWINQEL; listed as Homo sapiens) [compound 36] | +++ (>50 = +++) | – | – |
| 32 (PYQLNASLFTF; listed as Homo sapiens) [compound 32] | ++++ (>75% = ++++) | – | – |

| Substance | Peptide exchange (HLA-A*24) | Peptide exchange (HLA-A*02) | also measured |
| --- | --- | --- | --- |
| 22 (SLYDSIAFI; listed as Homo sapiens) [compound 22] | – | ++++ (>75% = ++++) | – |
| 24 (SYNDALLTF; listed as Homo sapiens) [compound 24] | +++ (>50 = +++) | – | Wells positive [%] (CD8+ T cells): +++ (50%-69%= +++) |
| 58 (GYIDKVRQL; listed as Homo sapiens) [compound 58] | ++ (>20% = ++) | – | – |
| 55 (LYFEKGEYF; listed as Homo sapiens) [compound 55] | ++++ (>75% = ++++) | – | – |
| 17 (RLGIKPESV; listed as Homo sapiens) [compound 17] | – | – | donors (CD8+ T cells): ++++ (>=70% = ++++); wells (CD8+ T cells): ++ (20%-49% = ++) |
| 6 (ALLESRVNL; listed as Homo sapiens) [compound 6] | – | ++++ (>75% = ++++) | Wells positive [%] (CD8+ T cells): + (<20% = +) |
| 43 (AYIKNGQLF; listed as Homo sapiens) [compound 43] | +++ (>50 = +++) | – | – |
| 29 (RYGSPINTF; listed as Homo sapiens) [compound 29] | +++ (>50 = +++) | – | donors (CD8+ T cells): +++ (50%-69% = +++); wells (CD8+ T cells): + (<20% = +) |
| 25 (IYEPYLAMF; listed as Homo sapiens) [compound 25] | +++ (>50 = +++) | – | – |
| 48 (AWAPKPYHKF; listed as Homo sapiens) [compound 48] | +++ (>50 = +++) | – | – |
| 52 (ALGDLVQSV; listed as Homo sapiens) [compound 52] | – | +++ (>50 = +++) | – |
| 1 (VTAQIGIVAV; listed as Homo sapiens) [compound 1] | – | ++++ (>75% = ++++) | Wells positive [%] (CD8+ T cells): ++++ (>=70% = ++++) |
| 3 (HLLEDIAHV; listed as Homo sapiens) [compound 3] | – | ++++ (>75% = ++++) | Wells positive [%] (CD8+ T cells): ++ (20%-49% = ++) |
| 44 (VYNTVSEGTHF; listed as Homo sapiens) [compound 44] | +++ (>50 = +++) | – | – |
| 13 (AMAPNHAVV; listed as Homo sapiens) [compound 13] | – | +++ (>50 = +++) | – |
| 53 (YLLKDKGEYTL; listed as Homo sapiens) [compound 53] | – | +++ (>50 = +++) | – |
| 47 (SYTPVLNQF; listed as Homo sapiens) [compound 47] | ++++ (>75% = ++++) | – | – |
| 42 (TYIGQGYII; listed as Homo sapiens) [compound 42] | +++ (>50 = +++) | – | donors (CD8+ T cells): ++++ (>=70% = ++++); wells (CD8+ T cells): + (<20% = +) |
| 11 (YLEEECPAT; listed as Homo sapiens) [compound 11] | – | ++ (>20% = ++) | – |
| 59 (IYPDVTYAF; listed as Homo sapiens) [compound 59] | +++ (>50 = +++) | – | – |
| 41 (RYLQKIEEF; listed as Homo sapiens) [compound 41] | +++ (>50 = +++) | – | – |
| 30 (SYSPAHARL; listed as Homo sapiens) [compound 30] | +++ (>50 = +++) | – | – |

Reference: patent US11786584B2, “Peptides and combination of peptides for use in immunotherapy against prostate cancer and other cancers” (Immatics Biotechnologies GmbH, priority 2015, dated 2023)
